Results as given in patent publication US11738008B2, “N-methyl-D-aspartic acid receptor modulators” (Emory University, priority 2018, dated 2023).
Where two headings read alike, the source gives them in different places.

How the values were obtained:
[1] = test system: benzodiazapine rat brain site; assay: NIMH PDSP radioligand binding, benzodiazapine rat brain site
Experimental: (§1) The NIMH PDSP is Directed by Bryan L. Roth at the University of North Carolina at Chapel Hill and Project Officer Jamie Driscoll at NIMH, Bethesda Md., USA. Radioligand binding was measured in the presence of 10 μM 1180-420 and 1180-447. […] For experimental details please refer to the PDSP web site https://pdsp.unc.edu/ims/investigator/web/. Both 1180-420 and 1180-447 were also tested at AMPA, nicotinic acetylcholine, serotonin, GABA, and glycine ion channels using a two-electrode voltage clamp assay.
(§2) Receptor binding profiles of compound 1180-447 were generously provided by the National Institute of Mental Health's Psychoactive Drug Screening Program, Contract # HHSN-271-2013-00017-C(NIMH PDSP). The NIMH PDSP is directed by Bryan L. Roth at the University of North Carolina at Chapel Hill and Project Officer Jamie Driscoll at NIMH, Bethesda Md., USA. Radioligand binding was measured in the presence of 10 μM 1180-447. […] For experimental details please refer to the PDSP web site https://pdsp.unc.edu/ims/investigator/web/.
(§3) The NIMH PDSP is Directed by Bryan L. Roth at the University of North Carolina at Chapel Hill and Project Officer Jamie Driscoll at NIMH, Bethesda Md., USA. Radioligand binding was measured in the presence of 10 μM 1180-420. […] For experimental details please refer to the PDSP web site https://pdsp.unc.edu/ims/investigator/web/.

σ1 = σ1 (Homo sapiens, UniProt Q99720); assay: NIMH PDSP radioligand binding, σ1; conditions: read-out: Radioligand binding in 10 μM compound (% control)
Experimental: as §1, §2, §3

H2 = H2 (Homo sapiens, UniProt P25021); assay: NIMH PDSP radioligand binding, H2; conditions: read-out: Radioligand binding in 10 μM compound (% control)
Experimental: as §1, §2, §3

α1β2γ2-GABAA = target: T1, α1β2γ2-GABAA (Homo sapiens, UniProt P14867+P18507+P47870); assay: Off-target two-electrode voltage clamp assay, α1β2γ2-GABAA; format: cell-based; conditions: 10 μM, mean ± SEM
T1 construct: expressed in transfected cells
Experimental: as §1

M3 = M3 (Homo sapiens, UniProt P20309); assay: NIMH PDSP radioligand binding, M3; conditions: read-out: Radioligand binding in 10 μM compound (% control)
Experimental: as §1, §2, §3

M5 = M5 (Homo sapiens, UniProt P08912); assay: NIMH PDSP radioligand binding, M5; conditions: read-out: Radioligand binding in 10 μM compound (% control)
Experimental: as §1, §2, §3

rat GluN1/GluN2C [2] = target: rat GluN1/GluN2C (Rattus norvegicus, UniProt P35439+Q00961); assay: Two-electrode voltage clamp recordings in Xenopus laevis oocytes, potentiation of GluN1/GluN2C; format: cell-based
Experimental: (§4) Xenopus laevis oocytes were purchased unfertilized from Ecocyte (Austin, Tex.). The oocytes were injected with mRNA to express recombinant rat GluN1/GluN2A, GluN1/GluN2B, GluN1/GluN2C, and GluN1/GluN2D and two-electrode voltage clamp (TEVC) recordings were performed. Drs. S. Heinemann (Salk Institute), S. Nakanishi (Kyoto University), and P. Seeburg (University of Heidelberg) provided the cDNAs for rat GluN1-1a (GenBank accession numbers U11418 and U08261, referred to as GluN1 henceforth), GluN2A (D13211), GluN2B (U11419), GluN2C (M91563), and GluN2D (D13213). GluN2C and GluN2D were altered according to literature precedent. […] To prevent the current increase typically seen during experiments with oocytes expressing GluN1/GluN2A receptors, the oocytes were either injected with 20 nL of 100 mM K-BAPTA (potassium 1,2-bis(o-aminophenoxy)ethane-N,N,N,N-tetraacetic acid) or pretreated with 50 μM BAPTA-AM (1,2-bis(o-aminophenoxy)ethane-N,N,N,N-tetraacetic acid tetraacetoxymethyl ester) for 10 minutes.

rat GluN1/GluN2C [3] = target: rat GluN1/GluN2C (Rattus norvegicus, UniProt Q00961); assay: as above; format: cell-based
Experimental: as §4

GluA2 = target: T2, GluA2 (Homo sapiens, UniProt P42262); assay: Off-target two-electrode voltage clamp assay, GluA2; format: cell-based; conditions: 10 μM, mean ± SEM
T2 construct: expressed in transfected cells
Experimental: as §1

serotonin transporter = serotonin transporter (Homo sapiens, UniProt P31645); assay: NIMH PDSP radioligand binding, serotonin transporter; conditions: read-out: Radioligand binding in 10 μM compound (% control)
Experimental: as §1, §2, §3

β3 = β3 (Homo sapiens, UniProt P13945); assay: NIMH PDSP radioligand binding, β3; conditions: read-out: Radioligand binding in 10 μM compound (% control)
Experimental: as §1, §2, §3

GluA1 = target: T3, GluA1 (Homo sapiens, UniProt P42261); assay: Off-target two-electrode voltage clamp assay, GluA1; format: cell-based; conditions: 10 μM, mean ± SEM
T3 construct: expressed in transfected cells
Experimental: as §1

α1D = α1D (Homo sapiens, UniProt P25100); assay: NIMH PDSP radioligand binding, α1D; conditions: read-out: Radioligand binding in 10 μM compound (% control)
Experimental: as §1, §2, §3

α2A = α2A (Homo sapiens, UniProt P08913); assay: NIMH PDSP radioligand binding, α2A; conditions: read-out: Radioligand binding in 10 μM compound (% control)
Experimental: as §1, §2, §3

GABAA = assay: NIMH PDSP radioligand binding, GABAA
Experimental: as §1, §2, §3

M2 = M2 (Homo sapiens, UniProt P08172); assay: NIMH PDSP radioligand binding, M2; conditions: read-out: Radioligand binding in 10 μM compound (% control)
Experimental: as §1, §2, §3

α2C = α2C (Homo sapiens, UniProt P18825); assay: NIMH PDSP radioligand binding, α2C; conditions: read-out: Radioligand binding in 10 μM compound (% control)
Experimental: as §1, §2, §3

δ-opioid receptor = δ-opioid receptor (Homo sapiens, UniProt P41143); assay: NIMH PDSP radioligand binding, δ-opioid receptor; conditions: read-out: Radioligand binding in 10 μM compound (% control)
Experimental: as §1, §2, §3

α2B = α2B (Homo sapiens, UniProt P18089); assay: NIMH PDSP radioligand binding, α2B; conditions: read-out: Radioligand binding in 10 μM compound (% control)
Experimental: as §1, §2, §3

D4 = target: T4, D4 (Homo sapiens, UniProt P21917); assay: NIMH PDSP radioligand binding, D4; conditions: read-out: Radioligand binding in 10 μM compound (% control)
T4 construct: NIMH PDSP (assay provider)
Experimental: as §1, §2, §3

α1A = α1A (Homo sapiens, UniProt P35348); assay: NIMH PDSP radioligand binding, α1A; conditions: read-out: Radioligand binding in 10 μM compound (% control)
Experimental: as §1, §2, §3

[4] = target: translocator protein (peripheral benzodiazepine site) (Homo sapiens, UniProt P30536); assay: NIMH PDSP radioligand binding, translocator protein; conditions: read-out: Radioligand binding in 10 μM compound (% control)
Experimental: as §1, §2, §3

5-HT2B = target: T5, 5-HT2B (Homo sapiens, UniProt P41595); assay: NIMH PDSP radioligand binding, 5-HT2B; conditions: read-out: Radioligand binding in 10 μM compound (% control)
T5 construct: NIMH PDSP (assay provider)
Experimental: as §1, §2, §3

T5 sequence (P41595 whole entry, species assumed): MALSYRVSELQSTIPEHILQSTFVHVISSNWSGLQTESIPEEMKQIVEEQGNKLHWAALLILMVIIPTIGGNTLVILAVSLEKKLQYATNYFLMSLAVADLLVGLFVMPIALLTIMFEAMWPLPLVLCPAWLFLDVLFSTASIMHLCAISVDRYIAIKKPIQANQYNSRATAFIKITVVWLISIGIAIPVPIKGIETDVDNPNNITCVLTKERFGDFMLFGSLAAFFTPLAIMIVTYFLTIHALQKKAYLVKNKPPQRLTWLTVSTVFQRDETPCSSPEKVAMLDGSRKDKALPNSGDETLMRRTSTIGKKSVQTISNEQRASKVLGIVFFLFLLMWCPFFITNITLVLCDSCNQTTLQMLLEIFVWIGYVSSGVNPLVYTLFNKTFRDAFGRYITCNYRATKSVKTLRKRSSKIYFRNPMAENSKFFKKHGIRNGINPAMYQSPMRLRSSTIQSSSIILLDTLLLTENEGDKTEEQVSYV
rat GluN1/GluN2C (Rattus norvegicus, UniProt Q00961), sequence (Q00961 20-1237, other chains not shown): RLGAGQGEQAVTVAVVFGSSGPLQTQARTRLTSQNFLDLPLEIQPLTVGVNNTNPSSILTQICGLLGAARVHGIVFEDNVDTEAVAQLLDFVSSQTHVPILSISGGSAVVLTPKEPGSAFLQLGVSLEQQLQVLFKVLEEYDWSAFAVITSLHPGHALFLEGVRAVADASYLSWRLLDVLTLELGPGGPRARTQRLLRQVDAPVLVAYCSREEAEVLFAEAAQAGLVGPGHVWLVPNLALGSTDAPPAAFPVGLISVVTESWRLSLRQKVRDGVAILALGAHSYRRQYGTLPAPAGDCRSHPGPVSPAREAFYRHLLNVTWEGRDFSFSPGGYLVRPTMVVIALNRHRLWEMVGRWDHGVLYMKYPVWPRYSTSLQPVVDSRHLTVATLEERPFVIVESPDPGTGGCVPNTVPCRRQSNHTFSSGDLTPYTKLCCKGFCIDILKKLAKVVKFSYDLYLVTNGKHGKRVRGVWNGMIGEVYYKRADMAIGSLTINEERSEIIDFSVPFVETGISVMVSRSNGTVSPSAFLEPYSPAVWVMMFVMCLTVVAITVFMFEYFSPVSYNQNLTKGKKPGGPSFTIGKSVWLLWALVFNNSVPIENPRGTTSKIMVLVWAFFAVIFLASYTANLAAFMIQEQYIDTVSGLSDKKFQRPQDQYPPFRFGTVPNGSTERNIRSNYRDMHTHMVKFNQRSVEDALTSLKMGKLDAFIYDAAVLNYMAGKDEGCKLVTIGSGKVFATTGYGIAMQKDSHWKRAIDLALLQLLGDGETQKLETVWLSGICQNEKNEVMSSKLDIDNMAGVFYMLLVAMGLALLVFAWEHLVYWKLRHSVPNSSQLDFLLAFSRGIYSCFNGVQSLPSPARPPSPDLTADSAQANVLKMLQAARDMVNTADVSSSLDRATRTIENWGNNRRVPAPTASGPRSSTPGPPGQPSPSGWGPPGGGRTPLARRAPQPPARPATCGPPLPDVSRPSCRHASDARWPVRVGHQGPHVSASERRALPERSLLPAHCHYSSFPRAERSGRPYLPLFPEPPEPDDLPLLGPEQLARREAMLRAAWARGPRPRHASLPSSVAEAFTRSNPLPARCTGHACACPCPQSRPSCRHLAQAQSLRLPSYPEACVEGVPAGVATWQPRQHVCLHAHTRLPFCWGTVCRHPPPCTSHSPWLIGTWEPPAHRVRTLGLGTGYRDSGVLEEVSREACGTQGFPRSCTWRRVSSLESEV
rat GluN1/GluN2C (Rattus norvegicus, UniProt P35439+Q00961), sequence (Q00961 20-1237, other chains not shown): as above
α1A, sequence (P35348 whole entry): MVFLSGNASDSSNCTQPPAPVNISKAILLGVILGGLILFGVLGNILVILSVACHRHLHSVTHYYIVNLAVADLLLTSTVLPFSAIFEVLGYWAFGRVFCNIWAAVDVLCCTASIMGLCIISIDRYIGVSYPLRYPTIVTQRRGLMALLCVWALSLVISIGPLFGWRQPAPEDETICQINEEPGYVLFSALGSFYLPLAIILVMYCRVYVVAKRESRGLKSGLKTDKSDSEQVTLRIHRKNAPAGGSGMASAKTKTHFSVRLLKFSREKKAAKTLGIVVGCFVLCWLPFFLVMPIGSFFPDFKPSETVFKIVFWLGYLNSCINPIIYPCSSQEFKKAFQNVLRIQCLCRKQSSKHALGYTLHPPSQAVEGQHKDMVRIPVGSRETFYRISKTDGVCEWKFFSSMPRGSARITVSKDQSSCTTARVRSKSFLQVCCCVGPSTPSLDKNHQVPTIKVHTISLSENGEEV
δ-opioid receptor, sequence (P41143 whole entry): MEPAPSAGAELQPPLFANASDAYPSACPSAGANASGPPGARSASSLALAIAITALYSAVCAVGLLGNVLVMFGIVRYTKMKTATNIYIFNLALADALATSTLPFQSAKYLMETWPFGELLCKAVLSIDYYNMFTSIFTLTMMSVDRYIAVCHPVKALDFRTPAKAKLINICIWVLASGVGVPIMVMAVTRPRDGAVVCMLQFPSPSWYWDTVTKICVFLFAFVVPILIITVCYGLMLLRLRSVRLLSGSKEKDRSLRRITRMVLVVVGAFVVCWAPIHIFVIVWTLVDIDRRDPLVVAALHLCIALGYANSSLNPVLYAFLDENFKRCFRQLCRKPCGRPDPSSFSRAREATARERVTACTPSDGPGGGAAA
T2 sequence (P42262 25-883, species assumed): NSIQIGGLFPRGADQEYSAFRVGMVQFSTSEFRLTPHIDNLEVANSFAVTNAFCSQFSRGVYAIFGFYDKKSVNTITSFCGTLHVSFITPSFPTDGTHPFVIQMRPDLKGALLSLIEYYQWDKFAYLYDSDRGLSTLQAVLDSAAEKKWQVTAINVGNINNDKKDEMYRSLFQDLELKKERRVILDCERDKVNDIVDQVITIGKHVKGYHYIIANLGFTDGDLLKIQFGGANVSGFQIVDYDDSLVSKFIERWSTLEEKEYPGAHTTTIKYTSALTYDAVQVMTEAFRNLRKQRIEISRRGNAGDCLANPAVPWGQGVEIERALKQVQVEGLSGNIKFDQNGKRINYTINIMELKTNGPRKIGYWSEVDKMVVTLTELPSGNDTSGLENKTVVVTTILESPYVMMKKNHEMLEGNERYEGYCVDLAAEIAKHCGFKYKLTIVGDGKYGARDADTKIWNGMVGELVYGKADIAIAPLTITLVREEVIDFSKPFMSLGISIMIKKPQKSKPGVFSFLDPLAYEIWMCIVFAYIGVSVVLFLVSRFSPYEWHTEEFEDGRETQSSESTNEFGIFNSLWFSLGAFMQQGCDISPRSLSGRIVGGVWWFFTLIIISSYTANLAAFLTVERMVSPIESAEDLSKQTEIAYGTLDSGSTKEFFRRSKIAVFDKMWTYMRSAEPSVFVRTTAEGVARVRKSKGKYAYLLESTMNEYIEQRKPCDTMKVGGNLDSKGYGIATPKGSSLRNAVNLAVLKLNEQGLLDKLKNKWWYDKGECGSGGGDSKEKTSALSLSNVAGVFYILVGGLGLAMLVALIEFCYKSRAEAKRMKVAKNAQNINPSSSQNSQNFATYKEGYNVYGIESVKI
β3, sequence (P13945 whole entry): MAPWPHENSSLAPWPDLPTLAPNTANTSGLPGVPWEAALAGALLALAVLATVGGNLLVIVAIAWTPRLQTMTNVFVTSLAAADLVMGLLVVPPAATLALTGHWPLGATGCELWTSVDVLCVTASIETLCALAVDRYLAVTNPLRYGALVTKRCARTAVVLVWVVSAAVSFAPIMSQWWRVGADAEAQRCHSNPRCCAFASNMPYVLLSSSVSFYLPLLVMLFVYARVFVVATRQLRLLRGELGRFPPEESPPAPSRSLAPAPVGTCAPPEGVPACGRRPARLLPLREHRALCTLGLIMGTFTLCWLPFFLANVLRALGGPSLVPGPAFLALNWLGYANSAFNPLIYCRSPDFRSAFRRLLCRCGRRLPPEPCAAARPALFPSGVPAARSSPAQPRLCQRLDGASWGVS
M2, sequence (P08172 whole entry): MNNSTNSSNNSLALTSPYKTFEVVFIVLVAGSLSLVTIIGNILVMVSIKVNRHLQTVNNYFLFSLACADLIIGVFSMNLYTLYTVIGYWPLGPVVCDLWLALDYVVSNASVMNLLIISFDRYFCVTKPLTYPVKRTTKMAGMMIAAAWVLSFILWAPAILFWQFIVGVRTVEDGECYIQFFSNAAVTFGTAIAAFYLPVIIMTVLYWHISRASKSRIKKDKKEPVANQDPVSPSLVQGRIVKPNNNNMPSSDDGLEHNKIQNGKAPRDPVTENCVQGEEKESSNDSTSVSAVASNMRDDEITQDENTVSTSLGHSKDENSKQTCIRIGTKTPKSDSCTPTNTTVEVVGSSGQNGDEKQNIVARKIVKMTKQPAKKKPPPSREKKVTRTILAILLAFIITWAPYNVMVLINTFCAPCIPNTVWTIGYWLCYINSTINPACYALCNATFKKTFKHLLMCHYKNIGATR
serotonin transporter, sequence (P31645 whole entry): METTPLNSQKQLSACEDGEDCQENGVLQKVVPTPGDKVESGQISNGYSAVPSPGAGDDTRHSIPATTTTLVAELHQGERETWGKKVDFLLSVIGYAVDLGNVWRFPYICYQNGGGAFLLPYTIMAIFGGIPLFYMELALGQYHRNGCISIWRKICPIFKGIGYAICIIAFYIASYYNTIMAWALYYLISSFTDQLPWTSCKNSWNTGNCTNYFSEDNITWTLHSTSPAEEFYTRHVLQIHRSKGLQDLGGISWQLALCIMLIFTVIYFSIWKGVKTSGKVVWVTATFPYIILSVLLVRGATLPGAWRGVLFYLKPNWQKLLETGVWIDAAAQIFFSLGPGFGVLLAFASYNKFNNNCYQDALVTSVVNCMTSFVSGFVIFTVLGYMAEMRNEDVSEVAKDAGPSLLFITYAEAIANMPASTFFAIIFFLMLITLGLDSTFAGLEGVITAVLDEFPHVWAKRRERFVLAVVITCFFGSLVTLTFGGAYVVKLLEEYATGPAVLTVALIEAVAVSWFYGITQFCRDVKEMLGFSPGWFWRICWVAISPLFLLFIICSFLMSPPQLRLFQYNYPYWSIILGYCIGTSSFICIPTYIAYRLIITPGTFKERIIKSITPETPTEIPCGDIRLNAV

COc1ccc(OCC2c3cccn3CCN2C(=O)c2cccc(Cl)c2)cc1 (stereo not shown) [1180-420, (3-Chlorophenyl)(1-((4-methoxyphenoxy)methyl)-3,4-dihydropyrrolo[1,2-a]pyrazin-2(1H)-yl)methanone]
Radioligand binding in 10 μM compound (% control) [1]: 71 % control
remaining activity at 10 µM (σ1): 76%
remaining activity at 10 µM (H2): 75%
% control response (α1β2γ2-GABAA): 81.4 ± 8.5 % control response
remaining activity at 10 µM (M3): 69%
remaining activity at 10 µM (M5): 101%
EC50 (rat GluN1/GluN2C [2]; read-out: GluN2C EC50): 1900 nM
GluN2C Max % (rat GluN1/GluN2C [3]; maximal response, current without potentiator = 100%): 312%
% control response (GluA2): 101.6 ± 1.3 % control response
remaining activity at 10 µM (serotonin transporter): 86%
remaining activity at 10 µM (β3): 74%
% control response (GluA1): 98.9 ± 13.7 % control response
remaining activity at 10 µM (α1D): 79%
remaining activity at 10 µM (α2A): 79%
Radioligand binding in 10 μM compound (% control) (GABAA): 110 % control
remaining activity at 10 µM (M2): 110%
remaining activity at 10 µM (α2C): 83%
remaining activity at 10 µM (δ-opioid receptor): 89%
remaining activity at 10 µM (α2B): 93%
remaining activity at 10 µM (D4): 90%
remaining activity at 10 µM (α1A): 91%
remaining activity at 10 µM [4]: 67%
remaining activity at 10 µM (5-HT2B): 97%

COc1ccc(OCC2c3cccn3CC(=O)N2Cc2cccc(C(F)(F)F)c2)cc1 (racemic) [1180-447, 1-((4-Methoxyphenoxy)methyl)-2-(3-(trifluoromethyl)benzyl)-1,2-dihydropyrrolo[1,2-a]pyrazin-3(4H)-one]
Radioligand binding in 10 μM compound (% control) [1]: 88 % control
remaining activity at 10 µM (σ1): 76%
remaining activity at 10 µM (H2): 103%
% control response (α1β2γ2-GABAA): 81.7 ± 7.5 % control response
remaining activity at 10 µM (M3): 87%
remaining activity at 10 µM (M5): 108%
EC50 (rat GluN1/GluN2C [2]; read-out: GluN2C pEC50 [95% CI] (converted)): 1260 nM
GluN2C (max) (%) (rat GluN1/GluN2C [3]): (298) %
% control response (GluA2): 99.3 ± 2.9 % control response
remaining activity at 10 µM (serotonin transporter): 91%
remaining activity at 10 µM (β3): 73%
% control response (GluA1): 96.8 ± 13.3 % control response
remaining activity at 10 µM (α1D): 79%
remaining activity at 10 µM (α2A): 98%
Radioligand binding in 10 μM compound (% control) (GABAA): 118 % control
remaining activity at 10 µM (M2): 90%
remaining activity at 10 µM (α2C): 85%
remaining activity at 10 µM (δ-opioid receptor): 93%
remaining activity at 10 µM (α2B): 94%
remaining activity at 10 µM (D4): 101%
remaining activity at 10 µM (α1A): 97%
remaining activity at 10 µM [4]: 84%
remaining activity at 10 µM (5-HT2B): 78%
